The values below come from ChEMBL document CHEMBL1201862, “PubChem BioAssay data set” (2004).

Holding throughout (assay): NCI-60 cell line screen, 48 h
Experiment [1] concerns CCRF-CEM.
For experiment [2], the system named is HOP-92.
The test system of experiment [3] is SF-295.
In experiment [4] the test system is LOX IMVI.
Experiment [5] concerns SF-268.
For experiment [6], the system named is U-251.
Experiment [7] relates to MOLT-4.
For experiment [8], the system named is Malme-3M.
For experiment [9], the system named is SNB-19.
Experiment [10] has as its system OVCAR-4.
The test system of experiment [11] is OVCAR-5.
Experiment [12] relates to SK-MEL-2.
For experiment [13], the system named is CAKI-1.
In experiment [14] the test system is HCT-116.
For experiment [15], the system named is K562.
Experiment [16] has as its system TK-10.
The test system of experiment [17] is ACHN.

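96-well plates; 48 h exposure; 5 concentrations. Endpoints by linear interpolation between flanking doses. Not reached: highest tested concentration assigned. At the GI50, growth is halved.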 The source made the active and inactive calls. Rule as the data show it: active = GI50 up to about 1.1 µM and inactive = higher.

`Oc1cc(O)cc(/C=C/c2ccc(O)c(O)c2)c1` [PICEATANNOL]: the GI50 was 4.32 µM (inactive) in experiment [1]; 12.3 µM (inactive) in experiment [2]; 16.5 µM (inactive) in experiment [3]; 11.9 µM (inactive) in experiment [4]; 8.59 µM (inactive) in experiment [5]; 15.4 µM (inactive) in [6]. For the same compound, the GI50 was 5.51 µM (inactive) in experiment [7]; 26.1 µM (inactive) in experiment [8]; 24.8 µM (inactive) in experiment [9]; 15.5 µM (inactive) in experiment [10]; 5.06 µM (inactive) in experiment [11]; 3.87 µM (inactive) in [12]. For the same compound, the GI50 is 4.35 µM (inactive) in experiment [13], 7.45 µM (inactive) in experiment [14] and 4.49 µM (inactive) in experiment [15].

For the compound `O=C1OC(c2ccccc2)=N/C1=C\c1c(O)cc(O)cc1O`, the GI50 in experiment [16] was > 100 µM (inactive); in experiment [1] it was > 100 µM (inactive); in experiment [2] it was > 100 µM (inactive); in [4] it was 78.3 µM (inactive); in [5], 99.5 µM (inactive); in experiment [17], 53.2 µM (inactive). For the same compound, the GI50 in experiment [6], in experiment [7], in experiment [8], in experiment [9], in experiment [10] and in [11] was > 100 µM (inactive) each time. The GI50 is > 100 µM (inactive) in experiment [12], > 100 µM (inactive) in experiment [13], 96.6 µM (inactive) in experiment [14] and 32.4 µM (inactive) in experiment [15].

Consider `COc1cc2c(cc1OC)C(C(c1ccccc1)c1ccccc1)N(C)CC2` (configuration not stated), for which the GI50 in experiment [1] was 64.7 µM (inactive); in experiment [2], 29.2 µM (inactive); in [3], > 75.9 µM (inactive); in experiment [4] it was > 81.1 µM (inactive); in experiment [5], > 100 µM (inactive); in experiment [6], 61.9 µM (inactive). Besides, the GI50 in [7] is 38.3 µM (inactive); in [8], 23.8 µM (inactive); in experiment [9] it was > 100 µM (inactive); in experiment [10], > 94 µM (inactive); in experiment [11], > 100 µM (inactive); in experiment [12] it was > 85.9 µM (inactive). In addition, the GI50 was 0.617 µM (active) in experiment [13], > 58.6 µM (inactive) in experiment [14] and 40.8 µM (inactive) in [15].

Consider `CCOC(=O)c1nc2ccc([N+](=O)[O-])cc2c2c1CCO2`, for which the GI50 in experiment [16], in experiment [1], in experiment [3], in experiment [4], in [5] and in experiment [17] was > 100 µM (inactive) throughout. Moreover, the GI50 in [6], in [7], in experiment [8], in experiment [9], in experiment [10] and in experiment [11] was > 100 µM (inactive) in each case. In addition, the GI50 in [12], in experiment [13], in experiment [14] and in experiment [15] was > 100 µM (inactive) in each case.

`C/N=c1\ss/c(=N\C(=S)N(C)C)n1C1CCCCC1`: the GI50 in [16] was > 31.6 µM (inactive); in [1] it was > 31.6 µM (inactive); in [2] it was > 10 µM (inactive); in experiment [3] it was > 31.6 µM (inactive); in [4] it was > 31.6 µM (inactive); in experiment [5] it was > 31.6 µM (inactive). Also, the GI50 in experiment [17], in experiment [6], in experiment [7], in experiment [8], in [9] and in [10] was > 31.6 µM (inactive) each time. Further, the GI50 was > 31.6 µM (inactive) in [11]; > 31.6 µM (inactive) in experiment [12]; > 31.6 µM (inactive) in [13]; > 10 µM (inactive) in experiment [14]; > 31.6 µM (inactive) in experiment [15].

On to `Oc1cc(Cl)ncn1`, for which the GI50 in [16], in experiment [1], in experiment [3], in experiment [4], in experiment [5] and in experiment [17] was > 100 µM (inactive) each time. Moreover, the GI50 in [6], in experiment [7], in experiment [8], in experiment [9], in [10] and in experiment [11] was > 100 µM (inactive) in each case. In addition, the GI50 in experiment [12], in [13], in experiment [14] and in [15] was > 100 µM (inactive) throughout.

In the case of `O=C1CCC(=O)C(C(=O)CCC(=O)Nc2ccc(Cl)cc2)C1` (configuration not stated), the GI50 in experiment [16], in [1], in experiment [2], in [3], in [4] and in experiment [5] was > 100 µM (inactive) in each case. Also, the GI50 in experiment [17], in experiment [6], in experiment [7], in [8], in experiment [9] and in [10] was > 100 µM (inactive) each time. Further, the GI50 in [11], in experiment [12], in experiment [13], in experiment [14] and in [15] was > 100 µM (inactive) throughout.

As for `O=C1C=C2SC3C[C@@]24CC1[N+]1=c2c4c(c(O)c4c2=C(C=N4)CC1)N3`, the GI50 in [1] is 2 µM (inactive); in [2], > 100 µM (inactive); in experiment [3] it was 3.43 µM (inactive); in [4], 2.51 µM (inactive); in [5] it was 1.45 µM (inactive); in experiment [6] it was 1.9 µM (inactive). Besides, the GI50 was 1.53 µM (inactive) in [7]; 1.85 µM (inactive) in experiment [8]; 5.31 µM (inactive) in experiment [9]; 1.66 µM (inactive) in experiment [10]; 2.17 µM (inactive) in [11]; 1.82 µM (inactive) in [12]. Moreover, the GI50 is 2.62 µM (inactive) in experiment [13], 1.81 µM (inactive) in experiment [14] and 2.44 µM (inactive) in [15].

On to `CCOC(=O)c1c(C)c2c(n1C)CCc1c[nH]nc1-2`, for which the GI50 in experiment [1], in [2], in experiment [3], in experiment [4], in experiment [5] and in [6] was > 100 µM (inactive) in each case. Further, the GI50 was > 100 µM (inactive) in [7]; > 100 µM (inactive) in [8]; > 64.6 µM (inactive) in experiment [9]; > 100 µM (inactive) in experiment [10]; 99.1 µM (inactive) in experiment [11]; > 100 µM (inactive) in experiment [12]. For the same compound, the GI50 in experiment [13], in experiment [14] and in experiment [15] was > 100 µM (inactive) throughout.
